The structures appear in SMILES notation.

The data set can be described thus: gradient 5% acetonitrile 3 min, to 50% in 2 min, to 85% in 15 min, held 3 min, 100 µL/min. To be noted: column: Zorbax Extend-C18 2.1 x 50 mm; eluents: water / acetonitrile, 0.1% formic acid. Put shortly:
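Each retention time is based on an adduct peak selected computationally and verified by manual inspection. Measurements used HPLC–quadrupole time-of-flight mass spectrometry in positive and negative ionization mode on mixtures of ~100 pure standards. Chromatography ran on a Zorbax Extend-C18 column (2.1 × 50 mm, 1.8 μm) at 100 μL/min with water and acetonitrile, each containing 0.1% formic acid, and dead and dwell volumes of 40 μL and 900 μL.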
In the case of `CCCc1nc(-c2cc3ccc(C)cc3nc2NC2CCCC2)no1`, the RP-LC retention time is 968 s.
With `O=C(NCc1nc(-c2ccc(N3CCCCC3)cc2)no1)c1ccco1` the figure was 777 s.
The compound `O=c1c2nc(-c3ccc4c(c3)OCO4)cn2ccn1-c1cccc(Cl)c1` showed an RP-LC retention time of 834 s.
On to `COc1ccc(S(=O)(=O)N2CCc3nn(CC4CC4)c(=O)n3CC2)cc1`, for which the RP-LC retention time was 744 s.
Compound `Cc1cccc(CNC(=O)C2(C)Cn3cnc(C(=O)NC4CCCCC4)c3C(=O)N2C2CC2)c1` (centres undefined) registered an RP-LC retention time of 819 s.
`CSc1ccccc1CN1CCC(CNC(=O)c2ccccc2Br)CC1` returned an RP-LC retention time of 572 s.
The value for `O=C(CN1CCN(Cc2ccc(F)cc2)C1=O)NCCc1ccccc1Cl` was 847 s.
`COc1cc(NC(=O)c2cccc([N+](=O)[O-])c2)c(OC)cc1Cl`: the RP-LC retention time stood at 921 s.
The value for `Cc1[nH]c(C(=O)N2CCC(CC(=O)NCc3ccccc3F)CC2)c(C)c1C(=O)OC(C)C` was 1030 s; that for `COCCNc1c(-c2ccccc2)nc2sc(C(=O)NCc3cccnc3)c(C)n12` was 611 s.
`CC(C)c1cc(C(=O)Nc2cc(F)cc(F)c2)nc2ccnn12` gave an RP-LC retention time of 1180 s.
Take `CCOc1ccc(NC(=O)c2cc3ccccc3cc2O)cc1`: the RP-LC retention time worked out at 1130 s.
With `Cc1ncc2c(n1)CCCN(CC(=O)NCC1CC1)C2=O` the figure was 582 s; with `O=C(NC1CCN(c2cc(-c3ccccc3)[nH]n2)C1)c1ccccc1F` (centres undefined), 756 s.
With `CC(=O)N1CCC(c2noc(-c3ccccn3)n2)C1` (centres undefined) the figure was 596 s; with `Cc1ccc2c(c1)N(S(C)(=O)=O)CCC(C(=O)Nc1ccc(C)c(Cl)c1)O2` (centres undefined), 1090 s.
With `O=C(Nc1ccc2c(c1)C(=O)N1CCCCC1CCO2)Nc1ccccc1C(F)(F)F` (centres undefined) the figure was 832 s; with `Cc1cc(C(=O)NCc2ccccc2)nc2cc(-c3cccs3)nn12`, 1080 s; with `c1cc(-c2nc(-c3ccc4c(c3)nnn4CCN3CCCCC3)no2)co1`, 642 s.
The compound `Cn1ncc2c3ccccc3n(CC(=O)N3CCC(N4CCCCC4)CC3)c2c1=O` gave an RP-LC retention time of 613 s.
The value for `CCNC(=O)C1CCCN(c2nc3ncn(CC(=O)NCc4ccc(OC)cc4)c(=O)c3s2)C1` (centres undefined) was 642 s.
With `Cc1ccc(C)c(-c2cc3c(=O)n(Cc4nc(-c5ccc(Cl)cc5)no4)ncn3n2)c1` the figure was 1220 s.
The value for `O=C(Nc1cccc(Cl)c1Cl)C1(c2ccc(F)cc2)CC1` was 1280 s; that for `COc1cccc(N2N=NC3C(=O)N(c4ccccc4)C(=O)C32)c1` (centres undefined) was 922 s.
Regarding `CCCNC(=O)C1CCCN(c2ccc(SCC(=O)Nc3ccc4c(c3)OCO4)nn2)C1` (centres undefined), the RP-LC retention time amounted to 642 s.
With `CCN(CC)S(=O)(=O)c1ccc2c(c1)N(CC(=O)N1CCOCC1)C(=O)C1CCCCN21` (centres undefined) the figure was 777 s; with `Cc1ccc(Oc2nccnc2N2CCCC(C(=O)NC(C)c3ccc(C)cc3C)C2)cc1` (centres undefined), 1160 s; with `CCc1ccc(S(=O)(=O)N2CCC3(CC2)NCCN=C3NCc2ccc(F)cc2)cc1`, 753 s.
The value for `COC(=O)C(N)Cc1ccc(Cl)cc1` (centres undefined) was 653 s.
The value for `CC(=O)N(CC(=O)N1CCc2sccc2C1COc1ccc(F)cc1)CC1CCCO1` (centres undefined) was 813 s; that for `Cc1ccc(CNc2c(-c3cccc(Br)c3)nc3ncccn23)cc1` was 927 s; that for `CCn1cc(CN2C[C@@H](COC)[C@H](c3nc(C)no3)C2)c2ccccc21` was 676 s.
In turn, `Cn1cccc1C(=O)C(=O)N1CCN(c2ccc(F)cc2)CC1` showed an RP-LC retention time of 819 s.
Consider `CCC1CCCCN1CCCNC(=O)C1CCCN(c2ncnc3c2nc2n3CCCCC2)C1` (centres undefined), for which the RP-LC retention time was 604 s.
For the compound `c1cc2c(cc1-c1noc(C3CCC3)n1)nnn2CCN1CCCCC1`, the RP-LC retention time is 654 s.
As for `O=C(CSc1ncnc2c1nnn2-c1cccc(Cl)c1)NCC1CCCO1` (centres undefined), the RP-LC retention time was determined as 820 s.
The value for `O=C(NCc1ccc(C(F)(F)F)cc1)C1CCCN(c2cn[nH]c(=O)c2)C1` (centres undefined) was 712 s; that for `O=C(c1cccc2ccccc12)N1CCN(c2ccc(Nc3ccncc3)nn2)CC1` was 554 s.
As to `CCCNC(=O)N1CCc2c(c(-c3nc(Cc4ccccc4)no3)nn2C)C1`, the RP-LC retention time was 780 s.
The value for `Cc1cc(SCC(=O)N2CCN(c3ccccc3)CC2)nc(-c2ccc(F)cc2)n1` was 1160 s.
With `CCN1C(=O)c2ccccc2S(=O)(=O)c2ccc(C(=O)N3CCN(c4ccccn4)CC3)cc21` the figure was 615 s.
With `c1ccc2c(c1)nnn2-c1ccncc1` the figure was 699 s; with `COc1ccc(C2(C(=O)N3CCCC(c4nnnn4C)C3)CC2)cc1` (centres undefined), 706 s; with `O=C(c1ccc2[nH]ccc2c1)N1CCCN(C2CCN(CC3CC3)C2=O)CC1` (centres undefined), 888 s.
`Cc1nc(N2CCN(c3ccccn3)CC2)nc2c1C(=O)CC(c1ccc(F)cc1)C2` (centres undefined) showed an RP-LC retention time of 755 s.
The value for `CC(=O)N1CCc2cc(N3CC(C(=O)Nc4ccc(F)cc4F)CC3=O)ccc21` (centres undefined) was 688 s; that for `Cc1ccc(C(=O)Nc2ccc(N3CCN(c4ccccc4)C3=O)nc2)cc1C` was 1070 s; that for `CCN1c2ccc(F)cc2C(=O)NC12CCN(C(=O)Cc1ccccc1Cl)CC2` was 863 s.
For the compound `O=C(Cn1nc2c3cc(-c4ccccc4)nn3ccn2c1=O)N1CCCc2ccccc21`, the RP-LC retention time is 940 s.
With `O=C(Cn1cccc(-c2nc(-c3ccc(Br)cc3)no2)c1=O)Nc1cccc(F)c1` the figure was 992 s; with `COC(=O)c1ccc2c(=O)n(CCc3ccccc3)c(N3CCN(c4ccccn4)CC3)nc2c1`, 756 s; with `COc1ccc(CNC(=O)C2CN(S(=O)(=O)C3CC3)CC23CCCCC3)cc1` (centres undefined), 891 s.
With `CC(O)c1nc2c(c(=O)n(C)c(=O)n2C)n1C` (centres undefined) the figure was 622 s; with `Cc1cccc(N2CCN(C(=O)CN3C(=O)CN(C)C(=O)c4ccccc43)CC2C)c1` (centres undefined), 671 s; with `COc1cc(C(=O)NCC(c2ccc3c(c2)OCO3)N2CCN(C)CC2)cc(OC)c1OC` (centres undefined), 610 s.
Compound `CCOC(=O)c1[nH]c(C)c(CN(Cc2ccc3c(c2)OCO3)C(=O)C2CC2)c1C` came in with an RP-LC retention time of 929 s.
`Cc1cccc2c(=O)n(C3CCN(S(=O)(=O)c4ccc(F)c(F)c4)CC3)cnc12`: the RP-LC retention time was determined as 989 s.
Compound `CCn1ncc(NC(=O)COc2ccc(C(C)C)cc2)c(N2CCOCC2)c1=O` came in with an RP-LC retention time of 1050 s.
The value for `CN1C(=O)N(C)C2(CCN(C(=O)Cc3ccc(Cl)cc3)CC2)C1=O` was 686 s; that for `Cc1cc(-c2cc(S(=O)(=O)NCc3ccccc3Cl)c(C)s2)n[nH]1` was 847 s.
With `COc1cccc(CNC(=O)Cn2ncc3c(N4CCN(c5ccccn5)CC4)ncnc32)c1` the figure was 598 s.
`CCN1CCN(C(=O)C2CCc3sc(C(=O)N4CCCC4)cc3C2)CC1` (centres undefined) displayed an RP-LC retention time of 580 s.
The value for `O=C(NCC1CCCCC1)C1(CCO)CCN(c2ncccn2)C1` (centres undefined) was 629 s; that for `CSc1cccc(NC(=O)Cn2c(=O)n(C3CC3)c(=O)c3nscc32)c1` was 705 s.
The value for `CCOC(=O)CSc1nc2c(sc3ccccc32)c(=O)n1CCc1c[nH]c2ccccc12` was 1220 s.
With `CCN1C(=O)C2(CCN(S(=O)(=O)Cc3ccccc3Cl)CC2)c2ccccc21`, the RP-LC retention time amounted to 1030 s.
With `Cc1cc(N2CCN(C)CC2)n2nc(CN3CCN(c4cccc(Cl)c4)CC3)nc2n1` the figure was 568 s.
Compound `CCc1ccc(NS(=O)(=O)c2cc3c(s2)CCN(C(=O)C2CC2)C3)cc1` had an RP-LC retention time of 864 s.
On to `O=C(Nc1ccc(Br)cc1F)c1ccc(-n2ccnc2)nn1`, for which the RP-LC retention time was determined as 693 s.
For the compound `COc1ccc(NC(=O)COc2ccccc2)c2ccccc12`, the RP-LC retention time stood at 893 s.
For `Cc1nc2cc(-c3noc(-c4ccccc4Br)n3)ccc2o1`, the RP-LC retention time was determined as 1140 s.
With `COCCCNC(=O)C1CCN(c2ccc(Sc3cccc(F)c3)nn2)CC1` the figure was 675 s.
The value for `Cc1sc(NC(=O)C(F)(F)F)nc1-c1ccc2c(c1)NC(=O)C(C)O2` (centres undefined) was 840 s; that for `CON=C(C(=O)NC1C(=O)N2C(C(=O)O)=C(CSc3nc(C)c(CC(=O)O)s3)CSC12)c1csc(N)n1` (centres undefined) was 629 s; that for `CC(=O)N1CCc2cc(N3CC(C(=O)NCc4ccc(F)cc4Cl)CC3=O)ccc21` (centres undefined) was 713 s.
With `Cc1ccc(CNC(=O)N2CCC3(CC2)NC(=O)c2ccc(Cl)cc2N3C)cc1` the figure was 843 s; with `COc1cc(OC)c(NC(=O)C2CCCN(c3ncnc4c3nc3n4CCCCC3)C2)cc1Cl` (centres undefined), 862 s; with `O=C(CCn1nnc2cc(-c3noc(C4CCCCC4)n3)ccc21)N1CCOCC1`, 891 s.
With `CCc1cccc(NC(=O)Cn2c(=O)nc(N3CCCCC3)c3ccccc32)c1`, the RP-LC retention time is 754 s.

These data come from the METLIN SMRT retention time set (Domingo-Almenara et al. 2019).
